# Measurements as given in paper PMC5432571 (Frontiers in Molecular Neuroscience, 2017).
# Read-outs that look alike come from different tables or passages of the source.
# Columns and labels:
# Assay type in all cases: cell-based
# homomeric α1 GlyR = molecular target: T1, homomeric α1 GlyR (Homo sapiens, UniProt P23415); experiment: Whole-cell patch-clamp of glycine-induced currents, α1 GlyR expressed in CHO cells; conditions: for inhibition at 30 µM / inhibition at 100 µM / inhibition at 300 µM: CHO, long protocol, read-out: inhibition of α1GlyR-mediated currents; for inhibition at 30 µM: NFA 30 μM; for inhibition at 100 µM: NFA 100 μM; for inhibition at 300 µM: NFA 300 μM
# T1 construct: expressed in transfected cells; host or cells: CHO cells
# T1 sequence (P23415 29-449 isoform P23415-2 limits assumed): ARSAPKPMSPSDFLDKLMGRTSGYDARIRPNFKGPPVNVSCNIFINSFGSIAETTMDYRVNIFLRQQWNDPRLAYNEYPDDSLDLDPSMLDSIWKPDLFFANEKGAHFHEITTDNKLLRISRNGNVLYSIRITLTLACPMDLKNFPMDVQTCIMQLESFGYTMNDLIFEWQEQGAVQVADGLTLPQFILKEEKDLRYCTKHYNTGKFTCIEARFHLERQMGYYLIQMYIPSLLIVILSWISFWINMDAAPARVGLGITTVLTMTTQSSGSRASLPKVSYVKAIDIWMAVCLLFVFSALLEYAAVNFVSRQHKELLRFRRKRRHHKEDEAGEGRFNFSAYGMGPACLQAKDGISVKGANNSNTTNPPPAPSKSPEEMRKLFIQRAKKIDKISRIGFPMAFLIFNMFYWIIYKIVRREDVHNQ
# Protocol: (§1) The experiments were carried out on cultured Chinese hamster ovary (CHO) cells obtained from the American Type Tissue Culture Collection (ATCC, Molsheim, France) that were maintained in culture conditions as previously described (Mukhtarov et al., [2013]; Maleeva et al., [2015]).
# (§2) One day before transfection, cells were plated on the cover slips (12 mm in diameter) and placed inside 35-mm cell culture dishes with 2 ml of medium. Transfection was performed using the Lipofectamine 3000 protocol (Life Technology, USA). To facilitate identification of transfected cells a green fluorescent protein (GFP) was added to the transfection mixture. For expression of functional heteromeric receptors, cells were simultaneously transfected with cDNAs of α and β subunits in the ratio 1:10. Three hours after the initial exposure of cells to the cDNAs the culture medium was replaced with that containing strychnine (1 μM), which prevents spontaneous activation of GlyRs. Electrophysiological recordings were performed in the fluorescent cells 24–72 h after transfection.
# (§3) Whole-cell and outside-out recordings were performed at room temperature (20–25°C) using an EPC-9 amplifier (HEKA Elektronik, Germany). Cells were continuously superfused with external solution containing (mM): NaCl 140, CaCl2 2, KCl 2.8, MgCl2 4, HEPES 20, glucose 10; pH 7.4; 320–330 mOsm. Intracellular solution used for filling recording patch pipettes contained (mM): CsCl 140, CaCl2 6, MgCl2 2, MgATP 2, NaGTP 0.4, HEPES/CsOH 10, BAPTA (tetrapotassium salt) 2; pH 7.3; 290 mOsm. Two different protocols of solutions application were used in this study. […] A “ramp protocol” implies the gradual change of Vhold alternately from −80 to +80 mV and from +80 to −80 mV during 1 s, Vhold was fixed at −80 or +80 mV at the beginning and at the end of the ramp for 500 ms (Figure 2B).
# (§4) Recording pipettes were pulled from borosilicate glass capillaries (Harvard Apparatus Ltd, USA) and had resistances of 5–10 MOhm. For the rapid replacement of the solutions, the fast application system was used. Three parallel rectangular tubes (100 × 100 μm) were positioned 40–50 μm above the recorded cell. The movement of the tubes was controlled by a computer-driven fast exchange system (SF 77A Perfusion Fast-Step, Warner, USA) allowing a 10–90% solution exchange in 3–5 ms, as measured by open electrode controls (1/10 external solution/water). Cells with low input resistance (<150 MOhm) and a rapid run-down (>30% with repetitive application) were excluded from analysis.
# (§5) Electrophysiological recordings were performed using PatchMaster (HEKA Electronic, Germany) software.
# The fractional electrical distance from the external side of the membrane (δ) at which bound NFA blocked the current was calculated using the Woodhull equation: IC50(V)=IC50(0) exp (−δFV/RT), where IC50(V) is IC50 at the given membrane potential, IC50(0) – at 0 mV, V – membrane potential and F, R, T have their usual meanings. δ was determined from a plot of IC50 values against membrane potential.
# α3 GlyR = molecular target: T2, α3 GlyR (Homo sapiens, UniProt O75311); experiment: Whole-cell patch-clamp of glycine-induced currents, α3 GlyR expressed in CHO cells; conditions: glycine 100 μM; for inhibition at 30 µM / inhibition at 300 µM: CHO, long application protocol, read-out: inhibition of α3 GlyR-mediated currents; for inhibition at 30 µM: NFA 30 μM; for inhibition at 300 µM: NFA 300 μM
# T2 construct: expressed in transfected cells; host or cells: CHO cells
# T2 sequence (O75311 34-464): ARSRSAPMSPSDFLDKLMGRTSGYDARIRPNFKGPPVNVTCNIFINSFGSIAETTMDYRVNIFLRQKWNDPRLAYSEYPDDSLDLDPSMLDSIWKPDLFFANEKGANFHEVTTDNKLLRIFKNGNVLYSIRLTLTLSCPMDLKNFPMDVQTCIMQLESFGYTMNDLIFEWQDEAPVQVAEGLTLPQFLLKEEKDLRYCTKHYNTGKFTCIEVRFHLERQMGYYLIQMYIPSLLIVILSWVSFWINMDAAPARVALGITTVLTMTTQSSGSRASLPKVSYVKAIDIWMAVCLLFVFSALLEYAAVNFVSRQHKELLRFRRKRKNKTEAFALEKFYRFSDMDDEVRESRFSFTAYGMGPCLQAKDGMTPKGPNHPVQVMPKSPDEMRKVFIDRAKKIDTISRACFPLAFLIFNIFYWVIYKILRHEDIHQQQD
# Protocol: as §1, §2, §3, §4, §5
# It is well documented that α3 GlyRs rapidly desensitize (Nikolic et al., [1998]) and this complicates accurate estimation of the NFA blocking potency.
# α1β GlyR = molecular target: T3, α1β GlyR (Homo sapiens, UniProt P23415+P48167); experiment: Whole-cell patch-clamp of glycine-induced currents, heteromeric α1β GlyR expressed in CHO cells; conditions: glycine 30 μM
# T3 construct: expressed in transfected cells; host or cells: CHO cells
# Protocol: as §1, §2, §3, §4, §5
# [1] = +30 mV, representative, read-out: NFA IC50 (representative IC50 curve)
# [2] = +80 mV, representative, read-out: NFA IC50 (representative IC50 curve)
# [3] = −30 mV, representative, read-out: NFA IC50 (representative IC50 curve)
# [4] = −80 mV, representative, read-out: NFA IC50 (representative IC50 curve)
# T3 sequence (P48167 23-497, one chain of several): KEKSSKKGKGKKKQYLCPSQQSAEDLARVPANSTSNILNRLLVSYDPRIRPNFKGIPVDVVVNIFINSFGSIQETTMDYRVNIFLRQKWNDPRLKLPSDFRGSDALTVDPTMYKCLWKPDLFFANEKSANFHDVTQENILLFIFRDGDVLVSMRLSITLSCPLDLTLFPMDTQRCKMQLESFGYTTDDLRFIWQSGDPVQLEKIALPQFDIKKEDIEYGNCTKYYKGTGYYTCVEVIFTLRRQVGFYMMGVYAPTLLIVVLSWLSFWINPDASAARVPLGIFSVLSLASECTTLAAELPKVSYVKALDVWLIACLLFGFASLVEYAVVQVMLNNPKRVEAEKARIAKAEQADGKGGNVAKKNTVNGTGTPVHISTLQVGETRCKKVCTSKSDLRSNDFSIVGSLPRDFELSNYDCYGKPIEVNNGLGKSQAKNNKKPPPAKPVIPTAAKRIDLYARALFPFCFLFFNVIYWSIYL
smiles,measurement,setting,value
"O=C(O)c1cccnc1Nc1cccc(C(F)(F)F)c1 [NFA, Niflumic acid]",IC50,"homomeric α1 GlyR; +30 mV, glycine 30 μM, representative, read-out: NFA IC50 (representative IC50 curve)",218 µM
same,IC50,"homomeric α1 GlyR; +30 mV, glycine 100 μM, representative, read-out: NFA IC50 (representative IC50 curve)",107 µM
same,IC50,"homomeric α1 GlyR; +80 mV, glycine 30 μM, ramp protocol, mean ± SEM, read-out: IC50 of NFA",197 ± 18 µM
same,IC50,"homomeric α1 GlyR; +80 mV, glycine 30 μM, representative, read-out: NFA IC50 (representative IC50 curve)",178 µM
same,IC50,"homomeric α1 GlyR; +80 mV, glycine 100 μM, ramp protocol, mean ± SEM, read-out: IC50 of NFA",90 ± 8 µM
same,IC50,"homomeric α1 GlyR; +80 mV, glycine 100 μM, representative, read-out: NFA IC50 (representative IC50 curve)",94 µM
same,inhibition at 30 µM,"homomeric α1 GlyR; Vhold +30 mV, glycine 30 μM",16 ± 7%
same,inhibition at 30 µM,"homomeric α1 GlyR; Vhold −30 mV, glycine 30 μM",3 ± 4%
same,inhibition at 100 µM,"homomeric α1 GlyR; Vhold +30 mV, glycine 30 μM",43 ± 11%
same,inhibition at 100 µM,"homomeric α1 GlyR; Vhold −30 mV, glycine 30 μM",16 ± 6%
same,inhibition at 300 µM,"homomeric α1 GlyR; Vhold +30 mV, glycine 30 μM",75 ± 4%
same,inhibition at 300 µM,"homomeric α1 GlyR; Vhold −30 mV, glycine 30 μM",48 ± 9%
same,Hill coefficient (nH) of NFA interaction,homomeric α1 GlyR; glycine 30 μM,1.5 ± 0.11
same,decrease of IC50 at +80 mV versus −80 mV,homomeric α1 GlyR; glycine 100 μM,about 3 fold
same,Hill coefficient (nH) of NFA interaction,"homomeric α1 GlyR; membrane potential 30 mV, glycine 30 μM",1.87 ± 0.02
same,Hill coefficient (nH) of NFA interaction,"homomeric α1 GlyR; membrane potential 50 mV, glycine 30 μM",1.55 ± 0.08
same,Hill coefficient (nH) of NFA interaction,"homomeric α1 GlyR; membrane potential 80 mV, glycine 30 μM",1.28 ± 0.07
same,Hill coefficient (nH) of NFA interaction,"homomeric α1 GlyR; membrane potential −50 mV, glycine 30 μM",1.7 ± 0.08
same,Hill coefficient (nH) of NFA interaction,"homomeric α1 GlyR; membrane potential −70 mV, glycine 30 μM",1.65 ± 0.08
same,Hill coefficient (nH) of NFA interaction,"homomeric α1 GlyR; membrane potential −80 mV, glycine 30 μM",1.56 ± 0.07
same,Hill coefficient (nH) of NFA inhibitory action,homomeric α1 GlyR; overall statement in discussion,~1.5
same,IC50,"homomeric α1 GlyR; −30 mV, glycine 30 μM, representative, read-out: NFA IC50 (representative IC50 curve)",256 µM
same,IC50,"homomeric α1 GlyR; −30 mV, glycine 100 μM, representative, read-out: NFA IC50 (representative IC50 curve)",171 µM
same,IC50,"homomeric α1 GlyR; −80 mV, glycine 30 μM, ramp protocol, mean ± SEM, read-out: IC50 of NFA",315 ± 30 µM
same,IC50,"homomeric α1 GlyR; −80 mV, glycine 30 μM, representative, read-out: NFA IC50 (representative IC50 curve)",272 µM
same,IC50,"homomeric α1 GlyR; −80 mV, glycine 100 μM, ramp protocol, mean ± SEM, read-out: IC50 of NFA",270 ± 26 µM
same,IC50,"homomeric α1 GlyR; −80 mV, glycine 100 μM, representative, read-out: NFA IC50 (representative IC50 curve)",209 µM
same,IC50,α3 GlyR; [1],23 µM
same,IC50,α3 GlyR; [2],10 µM
same,inhibition at 30 µM,α3 GlyR; +30 mV,62 ± 5%
same,inhibition at 30 µM,α3 GlyR; −30 mV,32 ± 4%
same,inhibition at 300 µM,α3 GlyR; +30 mV,90 ± 2%
same,inhibition at 300 µM,α3 GlyR; −30 mV,86 ± 5%
same,IC50,"α3 GlyR; MP +80 mV, mean ± SEM, read-out: IC50 of NFA",16 ± 6 µM
same,IC50,"α3 GlyR; MP −80 mV, mean ± SEM, read-out: IC50 of NFA",86 ± 14 µM
same,IC50,α3 GlyR; [3],78 µM
same,IC50,α3 GlyR; [4],117 µM
same,IC50,α1β GlyR; [1],152 µM
same,IC50,"α1β GlyR; +80 mV, mean ± SEM, read-out: IC50 of NFA",150 ± 14 µM
same,IC50,α1β GlyR; [2],144 µM
same,IC50,α1β GlyR; [3],200 µM
same,IC50,α1β GlyR; [4],191 µM
